# Experimental data published in patent US10406227B2, “Photoactivated molecules for light-induced modulation of the activity of electrically excitable cells and methods of using same” (University of Southern California, priority 2012, dated 2019).
# “Also recorded” adds a separate entry of the source. Like-named read-outs stand apart in the source and are kept apart here.
# Key:
# [1] = cited from earlier work
# [2] = system: primary cultured mouse chromaffin cells; assay: Imaging RubpyC17 in live cells (membrane luminescence); format: cell-based
# Procedure: (§1) Cells were imaged at 1-3 days after plating. The glass-bottomed chambers with adherent cells were washed twice with PBS and then filled with standard extracellular solution consisting of 140 mM NaCl, 2.8 mM KCl, 10 mM HEPES, 1 mM MgCl2, 2 mM CaCl2, and 10 mM glucose, pH adjusted to 7.2-7.4 and osmolarity adjusted to 290-310 mOsm. The chamber was then mounted on an Olympus IX70 inverted microscope stage for imaging, using a Cascade 512B EMCCD camera, operated by Metamorph software. Initial imaging was done with cells in extracellular solution without RubpyC17, first under brightfield to evaluate cell health and morphology, then under widefield argon ion laser illumination at 488 nm (Coherent, Innova 90-5, Santa Clara, Calif.), to evaluate autofluorescence. Next, the extracellular solution was removed and replaced with extracellular solution containing the RubpyC17 compound (10 μM in ≤0.01% DMSO, final concentrations). Cell images were then acquired with illumination at 488 nm (collected with a long-pass red emission filter). For electrophysiological experiments, RubpyC17 compound was added to the extracellular solution (2-10 μM in ≤0.01% DMSO, final concentrations as indicated) and cells were incubated for 1.5-45 min, as indicated, then washed with extracellular solution without RubpyC17. Some chromaffin cells were also exposed continuously to 490-900 nM RubpyC17-containing extracellular solution.
# (§2) Illustrated here are rat insulinoma INS cells (FIG. 1C, top), human embryonic kidney (HEK293T) cells (FIG. 1C, middle), and primary cultured mouse chromaffin cells (FIG. 1C, bottom). […] All cell types preserved morphology for at least 10 minutes. […] One embodiment of the possible light-induced electron transfer is depicted in FIG. 1D.
# RCS rats [3] = assay: Retina histology / pathology after intravitreal injection; format: in vivo, rat
# Source text: (§3) This finding was reproduced in 3 of 3 RCS rats injected with Rubpy-C17, and in 2 of 2 control (sham injection) RCS rats.
# [4] = system: whole-mount retinas from RCS rats; assay: Whole-mount retina multi-electrode array recording; format: cell-based, rat
# Source text: FIGS. 14A-14B depicts data from whole-mount retinas from RCS rats. […] Each bin represents the frequency of spikes for 1 second. Before Rubpy treatment (14A), illumination at 480 nm elicited minimal change in spike frequency. […] Downward arrows mark the time of 100 ms (1st) and 1 second (2nd to fourth) light stimuli.
# The retina will be freshly dissected from Royal College of Surgeons (RCS) rats (9 months' or older to ensure total loss of photoreceptors). The whole-mount retina will then be placed onto a multi-electrode array with the ganglion cell layer side facing the electrodes and is held down on the array using a lightly weighted porous membrane. Extracellular field potentials are recorded from 15 or 75 μm diameter electrodes using an MEA1060-Up amplifier and MC Rack software (Multi-Channel Systems). The activity of the retinal in response to illumination is monitored before and after PVN incubation. The retina is continuously perfused with oxygenated (95% O2, 5% CO2), heated (32C) Ames' Medium for baseline activity. The retina is then perfused with Ames' Medium containing PVN for 30 min to 1 hr, followed by 10 min wash with regular Ames' Medium before recording in Ames' Medium with 5-10 mM ascorbate. The retina will be illuminated by white LED light through a bandpass excitation filter (460-500 nm) with durations of 100 μs, 1 ms, 10 ms, 100 ms, 1 s and 30 s. […]
# HEK293T cells [5] = assay: Imaging RubpyC17 in live cells (membrane luminescence); format: cell-based, human
# Procedure: as §1, §2
# mouse chromaffin cells = assay: Carbon fiber amperometry of light-triggered secretion; format: cell-based
# Procedure: Carbon fiber electrodes were prepared using established methodology and coupled to an EPC10 amplifier. A+800 mV constant voltage was applied to the electrode relative to the Ag/AgCl bath electrode. The amperometry recordings were sampled at 4 kHz using Pulsemaster (HEKA). Extracellular composition consisted of 120 mM NaCl, 20 mM KCl, 10 mM HEPES, 1 mM MgCl2, 2 mM CaCl2, 10 mM glucose, pH adjusted to 7.2-7.4, and osmolarity adjusted to 290-300. Light stimulation in the blue spectrum originated from a xenon lamp source through a 470/40 nm bandpass excitation filter. The duration of illumination varied and is indicated by bars on figures.
# Action potential firing triggers secretion of norepinephrine and epinephrine from adrenal chromaffin cells, which can be readily detected by the technique of carbon-fiber amperometry, thus serving as a surrogate to detect action potential firing. […] Out of 18 RubpyC17-loaded cells tested, 15 cells (83%) experienced increased secretion by at least 100-fold during light illumination. Unlike the changes in light-induced depolarization, light-induced changes in secretion appeared to be more transient. One possible explanation for this is that at any moment in time, there are only a small number of release-competent vesicles—the so-called readily releasable pool of vesicles—and maintained stimulation causes rapid depletion of the readily releasable pool of vesicles in the initial phase of stimulation.
# RCS rats [6] = assay: Extracellular recording from superior colliculus after intravitreal injection; format: in vivo, rat
# Source text: as §3
# RCS rats [7] = assay: Pupillary light reflex after intravitreal injection; format: in vivo, rat
# Source text: FIG. 16 depicts the papillary light response in RCS rats.
# as §3
# HEK293T cells [8] = assay: Voltage-clamp membrane current during illumination; format: cell-based, human; conditions: voltage-clamp at approximately −80 mV
# Procedure: To examine whether light-activated RubpyC17 can directly interact and open or block endogenous ion channels, HEK293T cells were preincubated with RubpyC17, and patch-clamped in a voltage-clamp configuration. Voltage-clamp configuration allowed the cells to be clamped at a potential where most voltage-gated ion channels are closed (approximately −80 mV). […] The current-voltage relationship (FIGS. 5C, D) as well as the steady-state voltage-dependent activation curves of RubpyC17-treated chromaffin cells in voltage-clamp mode before and during light illumination (FIG. 5E).
# INS cells = assay: Imaging RubpyC17 in live cells (membrane luminescence); format: cell-based, rat
# Procedure: as §1, §2
# [9] = 10 μM in bath, 488 nm excitation
# [10] = 10 minutes after RubpyC17 removal
substance,measurement,setting,value
[Ru(bpy)2(bpy-C17)](PF6)2 [RubpyC17],electron transfer rate ket,"[1]; photo-activated RubpyC17 to oxidant ferricyanide, aqueous solution",~6.5e+09 M⁻¹ s⁻¹
same,electron transfer rate ket,[1]; reductant ascorbate to photo-activated RubpyC17,~2e+07 M⁻¹ s⁻¹
same,time cell morphology preserved,[2]; 10 μM RubpyC17,at least 10 minutes
same,incorporation into plasma membrane (membrane-localized luminescence),[2]; [9],rapidly and stably incorporates into mammalian cell membranes
same,membrane luminescence after removal from bath solution,[2]; [10],still observed
same,histology of the retina,"RCS rats [3]; 3 days after injection, preliminary",no evidence of retinal cell death or white blood cell infiltrates
same,initial pathology studies,RCS rats [3]; eyes injected with Rubpy-C17,absence of obvious signs of deleterious effects
same,spike frequency on illumination,"[4]; 100 micromolar for 30 minutes, 480 nm",spike frequency increased
same,light-induced action potential firing,[4]; photoreceptor-degenerate retina,respond to illumination by firing action potentials
same,time cell morphology preserved,HEK293T cells [5]; 10 μM RubpyC17,at least 10 minutes
same,incorporation into plasma membrane (membrane-localized luminescence),HEK293T cells [5]; [9],rapidly and stably incorporates into mammalian cell membranes
same,membrane luminescence after removal from bath solution,HEK293T cells [5]; [10],still observed
same,light-triggered secretion (amperometric spikes),"mouse chromaffin cells; 2 μM RubpyC17, 488 nm",exhibited numerous amperometric current spikes
same,cells with increased secretion during light illumination,mouse chromaffin cells; 15 of 18 RubpyC17-loaded cells,83%
same,increase in secretion during light illumination,mouse chromaffin cells; responding cells,at least 100 fold
same,RCS rats showing light-evoked superior colliculus activity,"RCS rats [6]; intravitreal, final concentration 100 μM",3 of 3
same,light-evoked electrical activity in superior colliculus,"RCS rats [6]; intravitreal, final concentration 100 μM, 30 minutes after injection",elicited reproducible and stereotypical electrical activity
same,persistence of light-induced SC electrical responses after injection,RCS rats [6]; single eye injection,up to 3 days
same,pupillary light reflex time,RCS rats [7]; injected eye,< 3 s
same,pupillary light reflex,RCS rats [7]; injected eye vs non-injected eye,vigorous pupillary light reflex was observed; also recorded: pupil constricts
same,light-induced changes in membrane current,HEK293T cells [8],did not exhibit light-induced changes in membrane current
same,time cell morphology preserved,INS cells; 10 μM RubpyC17,at least 10 minutes
same,incorporation into plasma membrane (membrane-localized luminescence),INS cells; [9],rapidly and stably incorporates into mammalian cell membranes
same,membrane luminescence after removal from bath solution,INS cells; [10],still observed
